Experimental data: patent US6251882A, “Alkyl ketones as potent anti-cancer agents” (Parker Hughes Institute, priority 1999, dated 2001)

Columns and labels:
[1] = system: U373 glioblastoma cells; test: Cell invasion assay (Matrigel-coated Boyden chambers), U373; format: cell-based, human; conditions: through Matrigel matrix, 1 μM to 25 μM, 48 hours (FIG. 5)
Protocol: The in vitro invasiveness of MDA-MB-231 breast cancer cells and U373 glioblastoma cells was assayed using a previously published method which employs Matrigel-coated Costar 24-well transwell cell culture chambers ("Boyden chambers") with 8.0-μm-pore polycarbonate filter inserts (Albini, et al., 1987, Cancer Res., 47:3239-3245). The chamber filters were coated with 50 μg/ml of Matrigel matrix, incubated overnight at room temperature under a laminar flow hood and stored at 4° C. Matrigel matrix is made up of several components of the extracellular matrix (ECM), including collagens, laminin and proteo-glycans.
On the day of the experiment, the coated inserts were rehydrated with 0.5 ml serum-free DMEM containing 0.1% bovine serum albumin for 1-2 hours. […] The cells were trypsinized, washed twice with serum-free DMEM containing BSA, counted and resuspended at 1×10^5 cells/ml. […] The invasive cells that migrated to the lower side of the filter were fixed, stained with Hema-3 solutions and counted under microscope. Five to 10 random fields per filter were counted to determine the mean (SE) values for the invasive fraction. The invasive fractions of cells treated with HI-131 were compared to those of DMSO treated control cells and the percent invading relative to the control was determined using the formula: [formula]
Each treatment condition was evaluated in duplicate in 3 independent experiments. […]

[2] = system: U373 glioblastoma cells; test: Adhesion assay to ECM proteins, U373; format: cell-based, human; conditions: laminin, fibronectin or type IV collagen; 16 hours (FIG. 7)
Protocol: A human brain tumor cell line derived from an adult patient with glioblastoma, U-373 MG (Cat. #HTB-17) and MDA-MB-231 breast cancer cells (Cat. #HTB-26) were obtained from American Type Culture Collection (ATCC, Manassas, Va.) and maintained in liquid culture using DMEM supplemented with 10% fetal bovine serum and antibiotics. Fibroblast conditioned medium was used as a source of chemoattractant in vitro invasion assays. Conditioned medium was prepared as described previously (Albini, et al., 1987, Cancer Res., 47:3239-3245). […]
In adhesion assays, cells were centrifuged, washed twice with serum-free DMEM, counted and resuspended in serum-free DMEM to a final concentration of 2.5×10^5 cells/ml. […] The adherent fraction was quantitated using MTT (3-[4,5-dimethylthiazol-2-yl]-2,5-diphenyltetrazolium bromide) assays. […] The absorbance of each well was measured in a microplate reader (Labsystems) at […] and a reference wavelength of 690 nm. […] The adherent fraction of cells treated with HI-131 was compared to the DMSO-treated control cells and the percent adhesion relative to the control was determined.
Each treatment condition was evaluated in duplicate in 3 independent experiments. The IC50 values were calculated by non-linear regression analysis.

Question: For `CCCCCCCCCCCCSC[C@H](NC(C)=O)C(=O)CCl` [HI-131, N-Ac-S-dodecyl-Cys chloromethyl ketone], which “inhibition of invasion, U373” value [1] is on record?
Answer: inhibited the invasion

Question: And the “loss of adhesion, U373” value [2]?
Answer: dose-dependent loss of adhesion
